Assay results reported in patent US20220151989A1, “LIPOIC ACID PRODRUG” (SANTEN PHARMACEUTICAL CO., LTD., priority 2019, published 2022).
Values joined by “and” are separate entries in the source; they are usually repeats but may differ in a detail not shown here. Identical values can stand only once.

Tests used:
lens elasticity [1] = experiment: Pharmacological Test-4: lens elasticity, once-daily instillation for 2 weeks; assay type: in vivo, C57BL/6J mice; conditions: for Lens elasticity improvement: once per day for 14 days, 8-month-old mice
Experimental: The effect of once-daily instillation of Compound 1 for 2 weeks on the lens elasticity was examined.
Compound 1 was stirred with the addition of Vehicle A to give a 0.3% (w/v) emulsion, and the emulsion was diluted with the diluent to give a 0.1% (w/v) emulsion. Further, the resulting 0.1% (w/v) emulsion was diluted with the diluent to give a 0.03% (w/v) emulsion. Further, the resulting 0.03% (w/v) emulsion was diluted with the diluent to give a 0.01% (w/v) emulsion.
EV06 was sonicated with the addition of Vehicle A to give a 1.5% (w/v) solution, which was used for comparison to Compound 1 sample.
1) Each test sample (2.5 μL/eye) was instilled into the right eye of 8-month-old C57BL/6J mice with a Pipetman once per day (around 9:00) for 14 days. 2) After the final instillation, the mice were euthanized by carbon dioxide inhalation, and then the eyeballs were extracted and rinsed with Hank's balanced salt solution (HESS). 3) The sclera near the optic nerve was cut with a razor, the lens was removed through the incision, and the removed lens was immersed in HESS. 4) The lens was placed on a glass slide, and an all-in-one fluorescence microscope BZ-9000 (Keyence) was used to capture an image of the lens (Image a). 5) Next, one cover glass (Corning^(registered trade mark) 22×22 mm Square) was placed on the lens, and an image in which the thickness of the lens changed due to the weight was similarly captured (Image b). 6) A change in the lens diameter was calculated from the following Equation 1 wherein the lens diameter of Image a is subtracted from the lens diameter of Image b. Then, the lens elasticity improvement of each sample group compared with the vehicle control group was calculated from Equation 2 described below. The mean value of the vehicle control group was based on 5 eyes, the mean value of each of the sample groups of compound 1 and EV06 was based on 10 eyes.
(§1) Change in lens diameter=Lens diameter in Image b of each test sample−Lens diameter in Image a of each test sample (Equation 1)
(§2) Lens elasticity improvement of each sample group=Mean change in lens diameter of each Test sample group−Mean change in lens diameter of Vehicle control group (Equation 2)

lens elasticity [2] = experiment: Pharmacological Test-5: lens elasticity, once-daily instillation for 1 week; assay type: in vivo, C57BL/6J mice
Experimental: The effect of once-daily instillation of Compound for 1 week on the lens elasticity was examined.
Compound 1 was stirred with the addition of Vehicle C to give a 0.1% (w/v) solution. A 0.03% […] solution and a 0.01% (w/v) solution were prepared in the same manner.
1) Each test sample (2.5 μL/eye) was instilled into both eyes of 9-month-old C57BL/6J mice with a Pipetman once per day (around 9:00) for 7 days. 2) After the final instillation, the mice were euthanized by carbon dioxide inhalation, and then the eyeballs were extracted and rinsed with Hank's balanced salt solution (HBSS). 3) The sclera near the optic nerve was cut with a razor, the lens was removed through the incision, and the removed lens was immersed in HESS. 4) The lens was placed on a glass slide, and an all-in-one fluorescence microscope BZ-9000 (Keyence) was used to capture an image of the lens (Image a). 5) Next, one cover glass (Corning^(registered trade mark) 22×22 mm Square) was placed on the lens, and an image in which the thickness of the lens changed due to the weight was similarly captured (Image b). 6) A change in the lens diameter was calculated from the following Equation 1 wherein the lens diameter of Image a is subtracted from the lens diameter of Image b. Then, the lens elasticity improvement of each sample group compared with the vehicle control group was calculated from Equation 2 described below. The mean value of the vehicle control group was based on 10 eyes, the mean values of Compound 1 sample group were based on 10 eyes.
as §1, §2

[3] = system: anterior segment of the eye; experiment: Ocular Irritation Test-1: modified Draize test and slit lamp examination; assay type: in vivo, Japanese White rabbit; parameters: key to Irritation Score of anterior segment of the eye: Palpebral conjunctival edema / Irritation Score of anterior segment of the eye: Bulbar conjunctival hyperemia / Irritation Score of anterior segment of the eye: Hyperemia of nictitating membrane / Irritation Score of anterior segment of the eye: Discharge / Slit lamp observation / Irritation Score of anterior segment of the eye: Flare of palpebral conjunctiva: +0.5: very slight; +1: slight; +2: moderate; +3: severe; —: No noteworthy findings; conditions: for slit lamp examination / irritation in anterior segment of the eye: 0.03% and 0.3% eye drops; for irritation in anterior segment of the eye: modified Draize test; for Irritation Score of anterior segment of the eye: Bulbar conjunctival hyperemia / Irritation Score of anterior segment of the eye: Discharge / Irritation Score of anterior segment of the eye: Flare of palpebral conjunctiva / Irritation Score of anterior segment of the eye: Hyperemia of nictitating membrane / Irritation Score of anterior segment of the eye: Palpebral conjunctival edema / Slit lamp observation: 50 μL/eye ten times at 30 minute intervals, 1 hour after last instillation
Experimental: 0.03% (w/v) and 0.3% (w/v) Compound 1 eye drops, and 0.03% (w/v) and 0.3% (w/v) Compound 3 eye drops were prepared in the same manner as Preparation of Test sample in Pharmacological test-2. Vehicle A was used for a vehicle group. 0.03% (w/v) and 0.3% (w/v) Compound 1 eye drops, 0.03% (w/v) and 0.3% (w/v) Compound 3 eye drops, and the vehicle were each instilled into the left eye of a Japanese White rabbit at a dose of 50 μL/eye with pipette ten times at 30 minute intervals. One hour after the final instillation, ocular irritation of anterior segment of the eye was evaluated according to the modified Draize test, and a slit lamp examination was performed. The contralateral eye was untreated. The ocular irritation of anterior segment of the eye was scored according to the following criteria: +0.5: very slight; +1: slight; +2: moderate; +3: severe

SMILES	slit lamp examination [3]	irritation in anterior segment of the eye [3]	Irritation Score of anterior segment of the eye: Bulbar conjunctival hyperemia ([3]; 0.03% eye drop)	Irritation Score of anterior segment of the eye: Discharge ([3]; 0.03% eye drop)	Irritation Score of anterior segment of the eye: Flare of palpebral conjunctiva ([3]; 0.03% eye drop)	Irritation Score of anterior segment of the eye: Hyperemia of nictitating membrane ([3]; 0.03% eye drop)	Irritation Score of anterior segment of the eye: Palpebral conjunctival edema ([3]; 0.03% eye drop)	Slit lamp observation ([3]; 0.03% eye drop)	Irritation Score of anterior segment of the eye: Bulbar conjunctival hyperemia ([3]; 0.3% eye drop)	Irritation Score of anterior segment of the eye: Discharge ([3]; 0.3% eye drop)	Irritation Score of anterior segment of the eye: Flare of palpebral conjunctiva ([3]; 0.3% eye drop)	Irritation Score of anterior segment of the eye: Hyperemia of nictitating membrane ([3]; 0.3% eye drop)	Irritation Score of anterior segment of the eye: Palpebral conjunctival edema ([3]; 0.3% eye drop)	Slit lamp observation ([3]; 0.3% eye drop)	also measured
CC(C)=CCOC(=O)CCCC[C@@H]1CCSS1 [Compound 1, 3-Methyl-2-buten-1-yl (R)-5-(1,2-dithiolan-3-yl)pentanoate]	No abnormalities were observed	No irritation was observed	—	—	—	—	—	—	—	—	—	—	—	—	Lens elasticity improvement (lens elasticity [1]; 0.01% (w/v) emulsion): 12.2 μm; Lens elasticity improvement (lens elasticity [1]; 0.03% (w/v) emulsion): 33.8 μm; lens elasticity improvement compared with 1.5% EV06 group (lens elasticity [1]; 0.03%, 0.1% and 0.3% sample groups, instilled once-daily): excellent results compared to 1.5% EV06 group; Lens elasticity improvement (lens elasticity [1]; 0.1% (w/v) emulsion): 34.1 μm; Lens elasticity improvement (lens elasticity [1]; 0.3% (w/v) emulsion): 39.8 μm; Lens elasticity improvement (lens elasticity [2]; 0.01% (w/v) solution in Vehicle C, both eyes, once per day for 7 days, 9-month-old mice): 10.6 μm; Lens elasticity improvement (lens elasticity [2]; 0.03% solution in Vehicle C, both eyes, once per day for 7 days, 9-month-old mice): 20.3 μm; Lens elasticity improvement (lens elasticity [2]; 0.1% (w/v) solution in Vehicle C, both eyes, once per day for 7 days, 9-month-old mice): 60.1 μm; Lens elasticity improvement (lens elasticity [2]; concentration of 0.1%, once-daily for 1 week): potent lens elasticity improvement
O=C(CCCC[C@@H]1CCSS1)OCCN1CCN(CCO)CC1 [Compound 3]	No abnormalities were observed	low	+1	+1	+1	+1	+0.5	—	+1 and +2	+1	+1	+1	+1 and +0.5	—	
C[N+](C)(C)CCOC(=O)CCCC[C@@H]1CCSS1.[Cl-] [EV06, Lipoic acid choline ester, reference compound]															Lens elasticity improvement (lens elasticity [1]; 1.5% (w/v) solution in Vehicle A): 5.8 μm
